The target in assay [1] is human 20S proteasome, trypsin-like (T-L) activity (Homo sapiens, UniProt Q99436). The experiment in a line: T-L activity of latent human 20S proteasome (Z-LLR-AMC, no SDS). Conditions: T-like Human 20S IC50, latent human 20S, Tris buffer without SDS, pH 8.1, 37°C, Z-LLR-AMC 52 µM.
Procedure: (§1) The peptidase activities of 20S proteasome were assayed using fluorogenic tri- and tetra-peptides coupled at their C-termini with 7-amino-4-methylcoumarin group (AMC). The initial concentration of purified yeast 20S proteasome [E0] […] An assay buffer was composed of 50 mM Tris-HCl (pH 8.1) and 0.02% (w/v) SDS (exceptionally, T-L activity was measured in Tris buffer without SDS, that may trigger precipitation of substrates containing the guanidino group [21]). […] The SFTI-1 analogues were incubated with 20S proteasome in assay buffer at 37°C for 30 min. Reactions were performed in 96-well black BRAND plates (Germany). The final volume of the solution in each well was 200 µL. […] Proteasomal subsite activities were determined by monitoring the AMC liberation over time with a Fluorostar Omega (BMG Labtech, Germany) using excitation and emission wavelengths of 380 nm and 450 nm, respectively.
Assay [2] deals with human 20S proteasome, caspase-like (C-L) activity (Homo sapiens, UniProt P28072). Briefly: C-L activity of SDS-activated human 20S proteasome (Z-LLE-AMC). Conditions: C-like Human 20S IC50, SDS-activated human 20S, pH 8.1, 37°C, Z-LLE-AMC 79 µM.
Procedure: (§2) An assay buffer was composed of 50 mM Tris-HCl (pH 8.1) and 0.02% (w/v) SDS (exceptionally, T-L activity was measured in Tris buffer without SDS, that may trigger precipitation of substrates containing the guanidino group [21]). […] The SFTI-1 analogues were incubated with 20S proteasome in assay buffer at 37°C for 30 min. Reactions were performed in 96-well black BRAND plates (Germany). The final volume of the solution in each well was 200 µL. […] Proteasomal subsite activities were determined by monitoring the AMC liberation over time with a Fluorostar Omega (BMG Labtech, Germany) using excitation and emission wavelengths of 380 nm and 450 nm, respectively. […] Association constants Ka were measured as described previously [14] and calculated using a two-parameter fit model (using the GraFit software package).
For assay [3], the target named is T1, human 20S proteasome, chymotrypsin-like (ChT-L) activity (Homo sapiens, UniProt P28074). Briefly: biochemical. Conditions: for IC50: ChT-like Human 20S IC50, SDS-activated human 20S, [E] 2.7 nM, pH 8.1, 37°C, Suc-LLVY-AMC 52 µM.
Procedure: as §2
The target in assay [4] is yeast 20S proteasome, chymotrypsin-like (ChT-L) activity (Saccharomyces cerevisiae, UniProt P30656). The experiment in a line: ChT-L activity of SDS-activated yeast 20S proteasome (Suc-LLVY-AMC).
Procedure: as §1
The target in assay [5] is T1, human 20S proteasome, chymotrypsin-like (ChT-L) activity.
Procedure: as §2
For the next assay, the system named is 20S proteasome. Set-up: method as in PMID 10805568. Conditions: ChT-L, T-L and C-L; cited from earlier work.
Assay [6] concerns rat and porcine 20S proteasomes, C-L site. More on the design: method as in PMID 19054805. Conditions: cited from earlier work.
Assay [7] has as its system rat and porcine 20S proteasomes, ChT-L. More on the design: method as in PMID 19054805. Conditions: cited from earlier work.
For assay [8], the system named is rat and porcine 20S proteasomes, T-L. More on the design: method as in PMID 19054805. Conditions: cited from earlier work.
Where [9] appears, read: ChT-like Yeast 20S IC50, SDS-activated yeast 20S, [E] 0.9 nM, pH 8.1, 37°C, 30 min incubation, Suc-LLVY-AMC 5.2 µM.

Data on 14 compounds can be found in publication PMC3934894, “Inhibition of Human and Yeast 20S Proteasome by Analogues of Trypsin Inhibitor SFTI-1” (PLoS ONE, 2014).

Where “and” joins values, the source holds several entries; their conditions need not be identical. Identical values can stand only once. Like-named read-outs stand apart in the source and are kept apart here. Peptide text beside a SMILES is read from it. * marks the point of attachment. Cbz = O=C(OCc1ccccc1)*

Broadly, the IC50 is the concentration that gives 50% inhibition. In general, Ki refers to a measure of affinity in units of concentration, obtained from inhibition or displacement. Lower therefore signals higher affinity. For the compound `CC[C@H](C)[C@@H]1NC(=O)[C@@H]2CCCN2C(=O)[C@H](CCCCN)NC(=O)[C@H](CC(C)C)NC(=O)[C@H](CO)NC(=O)[C@H](CCCNC(=N)N)NC(=O)[C@H]([C@@H](C)O)NC(=O)[C@@H](NC(=O)[C@H](CCCNC(=N)N)NC(=O)CN)CSSC[C@@H](C(=O)N[C@@H](Cc2ccccc2)C(=O)N2CCC[C@H]2C(=O)N[C@@H](CC(=O)O)C(=O)O)NC1=O` [Analogue III] (HELM PEPTIDE1{G.R.C.T.R.S.L.K.P.I.C.F.P.D}$PEPTIDE1,PEPTIDE1,3:R3-11:R3$$$V2.0), the half-maximal inhibitory concentration (IC50) is more than 100000 nM in assay [1], 2420 nM in assay [2], 3360 nM in assay [3] and 1070 nM in assay [4]. In addition, in assay [3], the inhibition constant Ki was 1760 nM.
With `CC[C@H](C)[C@@H]1NC(=O)[C@@H]2CCCN2C(=O)[C@H](CCCCN)NC(=O)[C@H](CC(C)C)NC(=O)[C@H](CO)NC(=O)[C@H](CCCCN)NC(=O)[C@H]([C@@H](C)O)NC(=O)[C@@H](NC(=O)[C@H](CCCNC(=N)N)NC(=O)CN)CSSC[C@@H](C(=O)N[C@@H](Cc2ccccc2)C(=O)N2CCC[C@H]2C(=O)N[C@@H](CC(=O)O)C(=O)O)NC1=O` [Analogue II] (HELM PEPTIDE1{G.R.C.T.K.S.L.K.P.I.C.F.P.D}$PEPTIDE1,PEPTIDE1,3:R3-11:R3$$$V2.0), the IC50 in [1] was more than 100000 nM; in assay [2], 6740 nM; in assay [3], 2660 nM; in assay [4] (setting [9]), 2150 nM. Moreover, the inhibition constant (Ki) in [3] was determined as 1230 nM.
Regarding `CC[C@H](C)[C@@H]1NC(=O)[C@@H]2CCCN2C(=O)[C@H]([C@@H](C)CC)NC(=O)[C@H](CCCNC(=N)N)NC(=O)[C@H](CO)NC(=O)[C@H](CCCCN)NC(=O)[C@H]([C@@H](C)O)NC(=O)[C@@H](NC(=O)[C@H](CCCNC(=N)N)NC(=O)CN)CSSC[C@@H](C(=O)N[C@@H](Cc2ccccc2)C(=O)N2CCC[C@H]2C(=O)N[C@@H](CC(=O)O)C(=O)O)NC1=O` [Analogue IV] (HELM PEPTIDE1{G.R.C.T.K.S.R.I.P.I.C.F.P.D}$PEPTIDE1,PEPTIDE1,3:R3-11:R3$$$V2.0), the IC50 in [1] turned out to be 60500 nM; in assay [2] it was 2440 nM; in [3], 2490 nM; in assay [4] (setting [9]), 5360 nM. The Ki in assay [3] was 1310 nM.
For `CC[C@H](C)[C@@H]1NC(=O)[C@@H]2CCCN2C(=O)[C@H](C)NC(=O)[C@H](C)NC(=O)[C@H](CO)NC(=O)[C@H](CCCCN)NC(=O)[C@H]([C@@H](C)O)NC(=O)[C@@H](NC(=O)[C@H](CCCNC(=N)N)NC(=O)CN)CSSC[C@@H](C(=O)N[C@@H](Cc2ccccc2)C(=O)N2CCC[C@H]2C(=O)N[C@@H](CC(=O)O)C(=O)O)NC1=O` [Analogue IX] (HELM PEPTIDE1{G.R.C.T.K.S.A.A.P.I.C.F.P.D}$PEPTIDE1,PEPTIDE1,3:R3-11:R3$$$V2.0), the IC50 in assay [1] is 62100 nM; in assay [2] it was more than 100000 nM; in assay [3], more than 100000 nM; in [4] (setting [9]) it was more than 100000 nM. In addition, in assay [4] (read-out: ChT-L activity remaining at about 100 µM), the remaining activity at 100 µM is not below 70%.
For the compound `CC[C@H](C)[C@@H]1NC(=O)[C@@H]2CCCN2C(=O)[C@@H]2CCCN2C(=O)[C@H]([C@@H](C)CC)NC(=O)[C@H](CO)NC(=O)[C@H](CCCCN)NC(=O)[C@H]([C@@H](C)O)NC(=O)[C@@H](NC(=O)[C@H](CCCNC(=N)N)NC(=O)CN)CSSC[C@@H](C(=O)N[C@@H](Cc2ccccc2)C(=O)N2CCC[C@H]2C(=O)N[C@@H](CC(=O)O)C(=O)O)NC1=O` [Analogue I], the IC50 in assay [1] was more than 100000 nM; in assay [2], 58200 nM; in [3], 51600 nM; in assay [4] (setting [9]) it was 52000 nM. In assay [3], this compound displayed an inhibitory constant (Ki) of 27000 nM.
In the case of `CC[C@H](C)[C@@H]1NC(=O)[C@@H]2CCCN2C(=O)[C@H](CCCCN)NC(=O)[C@H](CCCCN)NC(=O)[C@H](CO)NC(=O)[C@H](C)NC(=O)[C@H]([C@@H](C)O)NC(=O)[C@@H](NC(=O)[C@H](CCCNC(=N)N)NC(=O)CN)CSSC[C@@H](C(=O)N[C@@H](Cc2ccccc2)C(=O)N2CCC[C@H]2C(=O)N[C@@H](CC(=O)O)C(=O)O)NC1=O` [Analogue VIII] (HELM PEPTIDE1{G.R.C.T.A.S.K.K.P.I.C.F.P.D}$PEPTIDE1,PEPTIDE1,3:R3-11:R3$$$V2.0), the concentration for half-maximal inhibition (IC50) in assay [1] was more than 100000 nM; in assay [2] it was 5370 nM; in assay [3], 5800 nM; in [4], 8820 nM. Further, the affinity in [3], expressed as Ki, was 2990 nM.
For `CC[C@H](C)[C@@H]1NC(=O)[C@@H]2CCCN2C(=O)[C@H](CCCCN)NC(=O)[C@H](CCCCN)NC(=O)[C@H](CO)NC(=O)[C@H](Cc2ccccc2)NC(=O)[C@H]([C@@H](C)O)NC(=O)[C@@H](NC(=O)[C@H](CCCNC(=N)N)NC(=O)CN)CSSC[C@@H](C(=O)N[C@@H](Cc2ccccc2)C(=O)N2CCC[C@H]2C(=O)N[C@@H](CC(=O)O)C(=O)O)NC1=O` [Analogue VII] (HELM PEPTIDE1{G.R.C.T.F.S.K.K.P.I.C.F.P.D}$PEPTIDE1,PEPTIDE1,3:R3-11:R3$$$V2.0) the same measures were 45300 nM, 2800 nM, 3410 nM, 5340 nM and 1750 nM.
As for `CC[C@H](C)[C@@H]1NC(=O)[C@@H]2CCCN2C(=O)[C@H](CCCCN)NC(=O)[C@H](CCCCN)NC(=O)[C@H](CO)NC(=O)[C@H](Cc2ccc(O)cc2)NC(=O)[C@H]([C@@H](C)O)NC(=O)[C@@H](NC(=O)[C@H](CCCNC(=N)N)NC(=O)CN)CSSC[C@@H](C(=O)N[C@@H](Cc2ccccc2)C(=O)N2CCC[C@H]2C(=O)N[C@@H](CC(=O)O)C(=O)O)NC1=O` [Analogue VI] (HELM PEPTIDE1{G.R.C.T.Y.S.K.K.P.I.C.F.P.D}$PEPTIDE1,PEPTIDE1,3:R3-11:R3$$$V2.0), the IC50 in assay [1] turned out to be 93100 nM; in assay [2], 4020 nM; in [4], 6600 nM. For the same compound, the affinity in [3], expressed as Ki, was 1430 nM.
The term Kd denotes the concentration at which binding is half-saturated. Higher therefore signals lower affinity. `CC[C@H](C)[C@@H]1NC(=O)[C@@H]2CCCN2C(=O)[C@H](CCCCN)NC(=O)[C@H](CCCCN)NC(=O)[C@H](CO)NC(=O)[C@H](CCCNC(=N)N)NC(=O)[C@H]([C@@H](C)O)NC(=O)[C@@H](NC(=O)[C@H](CCCNC(=N)N)NC(=O)CN)CSSC[C@@H](C(=O)N[C@@H](Cc2ccccc2)C(=O)N2CCC[C@H]2C(=O)N[C@@H](CC(=O)O)C(=O)O)NC1=O` [Analogue V] (HELM PEPTIDE1{G.R.C.T.R.S.K.K.P.I.C.F.P.D}$PEPTIDE1,PEPTIDE1,3:R3-11:R3$$$V2.0): the IC50 is 72200 nM in assay [1]; 600 nM and 610 nM in assay [2]; 900 nM and 940 nM in assay [3]; 1230 nM in assay [4]. The “times lower Ka than Z-LLL-CHO” value in [5] (human 20S ChT-L) is “about 6.5 times”. In assay [3], this compound yielded a Kd of 1000 nM. This compound had a Ki in assay [3] of 310 nM.
For `CC[C@H](C)[C@@H]1NC(=O)[C@@H]2CCCN2C(=O)[C@H](CCCCN)NC(=O)[C@H](CCCCN)NC(=O)[C@H](CO)NC(=O)[C@H](CCCCN)NC(=O)[C@H]([C@@H](C)O)NC(=O)[C@@H](NC(=O)[C@H](CCCNC(=N)N)NC(=O)CN)CSSC[C@@H](C(=O)N[C@@H](Cc2ccccc2)C(=O)N2CCC[C@H]2C(=O)N[C@@H](CC(=O)O)C(=O)O)NC1=O` [Analogue X] (HELM PEPTIDE1{G.R.C.T.K.S.K.K.P.I.C.F.P.D}$PEPTIDE1,PEPTIDE1,3:R3-11:R3$$$V2.0), the IC50 in assay [1] was 86700 nM; in assay [2], 1120 nM; in assay [3] it was ~1280 nM and 1280 nM; in assay [4] (setting [9]) it was ~16700 nM and 16700 nM. Also, the Ki in assay [3] came to 660 nM.
For `C/C=C\NC(=O)[C@H]1NC(=O)[C@H](CC(N)=O)NC(=O)[C@@H](NC(=O)C(=O)[C@H](C)CC)Cc2ccc(O)c(c2)-c2cccc3c2NC(=O)[C@@]3(O)[C@@H]1O` [TMC-95B], the “reduction of 20S activities compared with TMC-95A” value in the assay on 20S proteasome is recorded as “to the same extent as TMC-95A”.
As for `C/C=C\NC(=O)[C@H]1NC(=O)[C@H](CC(N)=O)NC(=O)[C@@H](NC(=O)C(=O)[C@@H](C)CC)Cc2ccc(O)c(c2)-c2cccc3c2NC(=O)[C@@]3(O)[C@H]1O` [TMC-95C], in the assay on 20S proteasome, the “times weaker than TMC-95A” value is given as 20–150 times.
With `CC(C)C[C@@H](C=O)NC(=O)[C@H](CC(C)C)NC(=O)[C@H](CC(C)C)NC(=O)OCc1ccccc1` [Z-LLL-CHO, reference compound] (Cbz-Leu-Leu-Leu-aldehyde), the concentration for half-maximal inhibition (IC50) was 48200 nM in [1]; 1700 nM in [6]; 5620 nM in assay [2]; 780 nM in assay [7]; 2300 nM in [8]; 260 nM in assay [4]. Moreover, in assay [5], the “inhibition of ChT-L activity at 4 µM” value is on record as “completely abolished”. In addition, the “ChT-like Human 20S Ka×10^5” value in [5] (pH 8.1) worked out at 65.4.
`CC[C@H](C)[C@H](NC(=O)[C@H]([C@@H](C)CC)N(C)C(C)=O)C(=O)N[C@H](C(=O)N[C@@H](CC(C)C)C(=O)[C@@]1(C)CO1)[C@@H](C)O` [epoxomicin]: the IC50 in assay [6] was 3600 nM; in assay [7] it was 140 nM; in [8], 320 nM.
